Data published in ChEMBL document CHEMBL2321749, “Incorporation of rapid thermodynamic data in fragment-based drug discovery” (J Med Chem, 2013).

Tests used:
Steroid Delta-isomerase [1] = target: T1, Steroid Delta-isomerase (Pseudomonas putida, UniProt P07445); assay: Binding affinity to Pseudomonas putida KSI by isothermal titration calorimetry
T1 sequence (P07445 whole entry): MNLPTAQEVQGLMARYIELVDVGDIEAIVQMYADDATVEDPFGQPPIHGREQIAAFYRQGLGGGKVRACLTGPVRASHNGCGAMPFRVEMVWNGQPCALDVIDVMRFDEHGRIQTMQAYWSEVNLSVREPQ

Steroid Delta-isomerase [2] = target: T1, Steroid Delta-isomerase; assay: Binding affinity to Pseudomonas putida KSI by surface plasmon resonance analysis
[3] = target: T2, Steroid Delta-isomerase (Pseudomonas putida) (UniProt P07445); assay: Ratio of KD for Pseudomonas putida KSI by surface plasmon resonance analysis to KD for Pseudomonas putida KSI by surface plasmon resonance analysis
T2 sequence (whole entry): T1 sequence (P07445 whole entry)

Row | Kd (Steroid Delta-isomerase [1]) [µM] | Kd (Steroid Delta-isomerase [2]) [µM] | Compound | Ratio [3]
1 | 63 |  | Cn1cc(C(N)=O)c2ccccc21 | 
2 | 50 |  | NC(=O)/C=C/c1cccc(C(F)(F)F)c1 | 
3 | 22 |  | Cc1nnc2ccc(N3CCCC3)nn12 | 

The next lines start with the compound.

Row | Compound | Kd (Steroid Delta-isomerase [1]) [µM] | Kd (Steroid Delta-isomerase [2]) [µM] | Ratio [3]
4 | C[C@H](CCC(=O)O)[C@H]1CC[C@H]2[C@@H]3CC[C@@H]4C[C@H](O)CC[C@]4(C)[C@H]3C[C@H](O)[C@]12C [DEOXYCHOLIC ACID] | 16 | 16 | 
5 | NC(=O)Nc1cccc(C(F)(F)F)c1 | 46 |  | 
6 | CN1CCC2(C)c3cc(O)ccc3N(C)C12 (stereo not drawn) | 180 |  | 1.8
